Laboratory results reported in paper PMC4773817 (2016).

What was measured:
[1] = system: F10T (DNA, hairpin, hexaethylene glycol (HEG) linker between nucleotides 8 and 9) TATAGCTATATAGCTATAT; test: FRET melting; details: 3 μM compound, 0.2 μM DNA; no significant variation
[2] = system: PS2.M 5'-side loop n=1 (DNA, G4) GTGGGAGGGCGGGTTGG; test: luminescence enhancement; details: 4.2-fold emission enhancement
[3] = system: CCR5-DEL (DNA, single strand) CTCATTTTCCATACATTAAAGATAGTCAT; test: luminescence enhancement; details: 1 μM compound, 5 μM DNA, 10 mM Tris, pH 7.4
[4] = system: PS2.M (DNA, G4) GTGGGTAGGGCGGGTTGG; test: fluorescent intercalator displacement (G4-FID); details: Tris-HCl buffer; thiazole orange displaced
[5] = system: HP5 (DNA, hairpin) ACGTGGCTGAGGCCAGTGGGTAGGGCGGGTTGGCCTCAGCCACGT; test: luminescence enhancement; details: HP5 formed in assay without Nt.BbvCI
[6] = system: HP1 (DNA, hairpin) GGTACGTGGCTGAGGCCAGTGGGTAGGGCGGGTTGGCCTCAGCCACGTACC; test: luminescence enhancement; details: 1.1-fold emission enhancement
[7] = system: PS2.M 5'-side loop n=17 (DNA, G4) GTGGGTTTTTTTTATTTTTTTTGGGCGGGTTGG; test: luminescence enhancement; details: 9.2-fold emission enhancement
[8] = system: ds26 (DNA, duplex) CAATCGGATCGAATTCGATCCGATTG; test: FRET melting competition; details: ds26 (2 μM, 10-fold excess) as competitor of 0.2 μM labelled PS2.M; 3 μM compound; no significant change
[9] = system: FPS2.MT (labelled PS2.M) (DNA, G4) GTGGGTAGGGCGGGTTGG; test: FRET melting; details: not printed (procedure from ref. 50); 3 μM compound, 0.2 μM DNA

binding [1]: no
binding [2]: yes
binding [3]: weak
G4DC50 [4]: 7.0 µM
binding [5]: weak
binding [6]: weak
binding [7]: yes
binding [8]: weak
ΔTm [9]: ~ 12 °C
SMILES: [Ir+3].[Ir+3].[c-]1ccccc1-c1ccc2ccccc2n1.[c-]1ccccc1-c1ccc2ccccc2n1.[c-]1ccccc1-c1ccc2ccccc2n1.[c-]1ccccc1-c1ccc2ccccc2n1.c1ccc(N(CCCCCN(c2ccccn2)c2ccccn2)c2ccccn2)nc1
